Experimental data as given in article PMC8179437 (Chemical Science, 2021).

The compounds below were run against T1, TDP1 (Homo sapiens, UniProt Q9NUW8) (assay: TDP1 gel-based in vitro assay). Settings: Table 1 and main text.
Format: biochemical

T1 sequence (Q9NUW8 whole entry): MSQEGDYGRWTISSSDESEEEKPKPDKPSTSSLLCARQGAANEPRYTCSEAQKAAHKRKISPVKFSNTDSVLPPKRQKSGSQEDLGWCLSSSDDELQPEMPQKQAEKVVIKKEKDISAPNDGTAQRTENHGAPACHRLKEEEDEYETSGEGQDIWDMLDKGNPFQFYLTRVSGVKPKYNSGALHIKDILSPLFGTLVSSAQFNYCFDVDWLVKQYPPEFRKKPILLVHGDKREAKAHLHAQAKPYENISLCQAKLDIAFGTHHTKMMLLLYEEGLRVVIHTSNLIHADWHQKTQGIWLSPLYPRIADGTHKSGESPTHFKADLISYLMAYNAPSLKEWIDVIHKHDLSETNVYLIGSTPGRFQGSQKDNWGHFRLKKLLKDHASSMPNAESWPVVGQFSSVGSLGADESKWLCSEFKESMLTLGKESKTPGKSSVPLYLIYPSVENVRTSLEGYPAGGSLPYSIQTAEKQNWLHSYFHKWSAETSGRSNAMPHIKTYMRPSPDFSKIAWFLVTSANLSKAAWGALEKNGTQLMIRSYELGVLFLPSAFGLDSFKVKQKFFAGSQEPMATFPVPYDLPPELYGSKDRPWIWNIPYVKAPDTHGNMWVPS

Row | SMILES | IC50 [µM]
1 | c1ccc(Nc2c(-c3ccccc3)nc3ccccn23)cc1 [Compound 6t, N,2-Diphenylimidazo[1,2-a]pyridin-3-amine] | > 100
2 | O=C(O)c1ccc(Nc2c(-c3ccc(O)cc3)nc3ccccn23)cc1 [Compound 8f, 4-((2-(4-Hydroxyphenyl)imidazo[1,2-a]pyridin-3-yl)amino)benzoic acid] | > 100
3 | O=C(O)c1ccc(Nc2c(-c3ccc(C(=O)O)cc3)nc3ccccn23)cc1 [Compound 8h, 4-(3-((4-Carboxyphenyl)amino)imidazo[1,2-a]pyridin-2-yl)benzoic acid] | > 100
4 | CS(=O)(=O)c1ccc2nc(-c3ccccc3)c(Nc3ccc(C(=O)O)cc3)n2c1 [Compound 8q, 4-((6-(Methylsulfonyl)-2-phenylimidazo[1,2-a]pyridin-3-yl)amino)benzoic acid] | 1.8
5 | CS(=O)(=O)c1ccc2nc(-c3ccc(-c4ccccc4)cc3)c(Nc3ccc(C(=O)O)cc3)n2c1 [Compound 8r, 4-((2-([1,1'-Biphenyl]-4-yl)-6-(methylsulfonyl)imidazo[1,2-a]pyridin-3-yl)amino)benzoic acid] | 9.95
6 | O=C(O)c1ccc(Cn2c(-c3ccccc3)nc3ccccc32)cc1 [Compound 9a, 4-((2-Phenyl-1H-benzo[d]imidazol-1-yl)methyl)benzoic acid] | > 100
7 | O=C(O)c1ccc(Cn2c(-c3ccccc3)cc3ccccc32)cc1 [Compound 9b, 4-((2-Phenyl-1H-indol-1-yl)methyl)benzoic acid] | > 100

What follows are compounds tested against T1, TDP1 (assay: TDP1 Lineweaver–Burk analysis). Settings: not given.
Format: biochemical

Row | SMILES | mode of inhibition
8 | O=C(O)c1ccc(Nc2c(-c3ccccc3)nc3cnccn23)cc1 [Compound 7b, 4-((2-Phenylimidazo[1,2-a]pyrazin-3-yl)amino)benzoic acid] | competitive
9 | O=C(O)c1ccc(Nc2c(-c3ccccc3)nc3ccccn23)cc1 [Compound 8a, 4-((2-Phenylimidazo[1,2-a]pyridin-3-yl)amino)benzoic acid] | competitive
10 | O=C(O)c1ccc(Nc2c(-c3ccccc3)nc3cnccn23)cc1C(=O)O [Compound 10a, 4-((2-Phenylimidazo[1,2-a]pyrazin-3-yl)amino)phthalic acid] | competitive
11 | O=C(O)c1ccc(Nc2c(-c3ccccc3)nc3ccccn23)cc1C(=O)O [Compound 10b, 4-((2-Phenylimidazo[1,2-a]pyridin-3-yl)amino)phthalic acid] | competitive
